Assay results published in patent JP2013032353A, “ロキソプロフェン含有医薬組成物” (priority 2011, dated 2013).

What was measured:
[1] = tested on: gastric mucosal injury caused by loxoprofen [ロキソプロフェンに起因する胃粘膜障害]; assay: Suppression of loxoprofen-induced gastrointestinal injury in rats (Test Examples 3, 6, 9, 12, 15, 24); assay type: in vivo, rat (Wistar); conditions: rat, 1 h before loxoprofen sodium hydrate 120 mg/kg p.o., result in words
[2] = Interaction study: storage of loxoprofen sodium hydrate/drug mixtures and of the single drugs at 60 °C (Test Examples 1, 4, 7, 10, 13, 16, 18, 20, 21, 23, 25, 27); assay type: physicochemical; conditions: stored 1 week in glass bottle (3K), evaluated at start, 1 day, 3 days (2 days in Test Examples 10 and 16) and 1 week

## C[C@@H]([C@H](O)c1ccccc1)N(C)C.Cl [dl−メチルエフェドリン塩酸塩]
[1]; oral, 20, 60, 180 mg/5 mL/kg
  reduction of loxoprofen-induced gastric mucosal injury: 軽減した
[2]
  state in the glass bottle on storage: 変化は生じなかった

## Nc1c(Br)cc(Br)cc1CN[C@H]1CC[C@H](O)CC1 [アンブロキソール塩酸塩]
[2]
  state in the glass bottle on storage: 変化は生じなかった

## CN(C)CCOC(c1ccc(Cl)cc1)c1ccccn1 (centres unmarked) [カルビノキサミンマレイン酸塩]
[1]; oral, 0.75, 75 mg/5 mL/kg
  reduction of loxoprofen-induced gastric mucosal injury: 軽減した
[2]
  state in the glass bottle on storage: 変化は生じなかった

## CN1CCC[C@@H]1CCO[C@](C)(c1ccccc1)c1ccc(Cl)cc1 [クレマスチンフマル酸塩]
[1]; oral, 1 mg/5 mL/kg
  reduction of loxoprofen-induced gastric mucosal injury: 軽減した
[2]
  state in the glass bottle on storage: 変化は生じなかった

## CN(C)CC[C@@H](c1ccc(Cl)cc1)c1ccccn1.O=C(O)/C=C\C(=O)O [クロルフェニラミンマレイン酸塩, d−クロルフェニラミンマレイン酸塩]
[1]; oral, 5, 40 mg/5 mL/kg
  reduction of loxoprofen-induced gastric mucosal injury: 軽減した
[2]
  state in the glass bottle on storage: 変化は生じなかった

## COc1ccccc1OCC(O)CO (centres unmarked) [グアイフェネシン]
[2]
  state in the glass bottle on storage: 変化は生じなかった

## COc1ccc2c3c1O[C@H]1[C@@H](O)CC[C@H]4[C@@H](C2)N(C)CC[C@@]341 [ジヒドロコデインリン酸塩]
[1]; oral, 8, 24, 72 mg/5 mL/kg, n=6
  reduction of loxoprofen-induced gastric mucosal injury: 軽減した

## CN1CCC(OC(c2ccccc2)c2ccccc2)CC1 [ジフェニルピラリン塩酸塩]
[1]; oral, 3, 10 mg/5 mL/kg
  reduction of loxoprofen-induced gastric mucosal injury: 軽減した
[2]
  state in the glass bottle on storage: 変化は生じなかった

## COc1ccc2c(c1)[C@]13CCCC[C@@H]1[C@H](C2)N(C)CC3 [デキストロメトルファン臭化水素酸塩水和物]
[2]
  state in the glass bottle on storage: 変化は生じなかった

## CN(Cc1cc(Br)cc(Br)c1N)C1CCCCC1 [ブロムヘキシン塩酸塩]
[2]
  state in the glass bottle on storage: 変化は生じなかった

## CC(C(=O)[O-])c1ccc(CC2CCCC2=O)cc1.O.O.[Na+] (centres unmarked) [ロキソプロフェンナトリウム水和物, Monosodium 2-[4-[(2-oxocyclopentyl)methyl]phenyl]propanoate dihydrate]
[2]
  state in the glass bottle on storage: 変化は生じなかった

## リゾチーム塩酸塩: リゾチーム塩酸塩 (lysozyme hydrochloride)
[2]
  state in the glass bottle on storage: 変化は生じなかった
